Where “and” joins values, the source holds several entries; their conditions need not be identical. Identical values can stand only once. Like-named read-outs stand apart in the source and are kept apart here.
How the values were obtained:
[1] = Plasma clearance and plasma metabolite analysis; format: in vivo, rat; conditions: Wistar, rat, in vivo, iv, metabolite-corrected plasma, intravenous injection, rats
Protocol: (§1) PET scans with arterial blood sampling were performed in a different set of rats to generate input for pharmacokinetic modelling. For the arterial blood sampling a cannula was inserted into the femoral artery after induction of anaesthesia. The femoral vein was additionally cannulated for PET tracer injection. After cannulation, the rats were positioned in the camera and a transmission scan was acquired using a ^57Co point source. […] A 0.1 ml blood sample of was taken at 0, 5, 10, 15, 20, 30, 45, 60, 75, 90, 120, 180, 300, 450, 600, 900, 1,800 and 3,600 s after injection. A larger blood sample of 0.5 ml was taken at three time points (5, 15, 30 and/or 60 min) for metabolite analysis. After collection of each blood sample, heparinized saline was injected to prevent large changes in blood pressure. A 25 μl aliquot of whole blood was extracted from each sample for radioactivity measurement. The remainder of each sample was centrifuged at 13,000 rpm (15,996 g) for 8 min, and 25 μl plasma was taken for radioactivity measurement. The radioactivity in blood and plasma was measured with a gamma counter.
Radioactive metabolites in plasma were measured using the extra blood samples taken at three time points during each scan (5, 15, 30 and/or 60 min). After centrifugation and collection of the plasma sample for radioactive measurement, as described above, the remaining plasma was diluted with acetonitrile (1.5 times the amount of plasma) and vortex-mixed. The plasma suspension was centrifuged at 5,300 rpm (3,030 g) for 3 min, and divided into supernatant and pellet. […] Fractions of 30 s were collected and measured in the gamma counter.
The percentage of metabolites in plasma was calculated by fitting an exponential function to the values obtained from the HPLC analysis. The plasma values obtained from the blood samples during the PET scan were then corrected for the presence of these metabolites, and used together with the whole-blood curve for further analysis. Metabolite corrected plasma TACs were fitted for each individual rat using iterative nonlinear least-squares fitting to the biexponential equation: SUVt = Ae^−αt + Be^−βt, where SUVt is the plasma SUV at time t, α and β are the apparent distribution and elimination rate constants (s^−1), respectively, and A and B are the corresponding zero-time intercepts. The weighting factors were the reciprocals of the plasma SUV squared. Distribution and elimination half-lives (seconds) were calculated as the natural logarithm of 2 divided by α and β, respectively.

TSPO = target: T1, TSPO (Rattus norvegicus, UniProt P16257); experiment: Kinetic modelling of PET data (2TCMR, Logan): BPND and VT; format: in vivo
T1 construct: from tissue; host or cells: Brain regions and peripheral organs of male Wistar rats, measured in vivo by PET and ex vivo by gamma counting
Protocol: as §1
The TACs of those rats in which blood sampling was performed, together with their corresponding whole-blood and metabolite-corrected plasma curves, were used for pharmacokinetic modelling using PMOD v3.3 (PMOD Technologies, Zürich, Switzerland). […] The reversible two-tissue compartment model (2TCMR) with K 1/k 2 fixed to the whole cortex value and a fixed blood volume of 3 % were used to calculate the V T and nondisplaceable binding potential (BPND, calculated as k 3/k 4 [29]).

[2] = control rats (PBS group), k3/k4

CCCN(CCC)C(=O)Cc1c(-c2ccc(O[11CH3])cc2)nc2c(Cl)cc(Cl)cn12 [[^11C]CB184]
half-life ([1]; read-out: Distribution half-life in plasma (converted)): 0.283 min
half-life ([1]; read-out: Elimination half-life in plasma): 44 ± 26 min
Binding potential (BPND), Cerebellum (TSPO; HSE group, k3/k4): 3.83 ± 0.63
Binding potential (BPND), Frontal cortex (TSPO; HSE group, k3/k4): 3.08 ± 1.20
Binding potential (BPND), Hippocampus (TSPO; HSE group, k3/k4): 2.44 ± 0.34
Binding potential (BPND), Midbrain (TSPO; HSE group, k3/k4): 2.50 ± 0.51
Binding potential (BPND), Olfactory bulb (TSPO; HSE group, k3/k4): 8.82 ± 2.97
Binding potential (BPND), Rest cortices (TSPO; HSE group, k3/k4): 2.69 ± 0.47
Binding potential (BPND), Striatum (TSPO; HSE group, k3/k4): 1.91 ± 0.41
Binding potential (BPND), Thalamus (TSPO; HSE group, k3/k4): 1.85 ± 0.41
Binding potential (BPND), Whole brain (TSPO; HSE group, k3/k4): 3.25 ± 0.41
Binding potential (BPND), Amygdala (TSPO; [2]): 2.4 ± 1.2 and 2.39 ± 1.23
Binding potential (BPND), Cerebellum (TSPO; [2]): 2.88 ± 1.39
Binding potential (BPND), Frontal cortex (TSPO; [2]): 2.14 ± 1.23
Binding potential (BPND), Hippocampus (TSPO; [2]): 1.55 ± 0.90
Binding potential (BPND), Hypothalamus (TSPO; [2]): 2.7 ± 1.6 and 2.74 ± 1.62
Binding potential (BPND), Medulla (TSPO; [2]): 2.6 ± 1.2 and 2.64 ± 1.16
Binding potential (BPND), Midbrain (TSPO; [2]): 1.73 ± 0.98
Binding potential (BPND), Olfactory bulb (TSPO; [2]): 5.56 ± 2.67
Binding potential (BPND), Pons (TSPO; [2]): 2.6 ± 1.3 and 2.63 ± 1.31
Binding potential (BPND), Rest cortices (TSPO; [2]): 2.27 ± 1.37
Binding potential (BPND), Septum (TSPO; [2]): 1.5 ± 0.9 and 1.53 ± 0.90
Binding potential (BPND), Striatum (TSPO; [2]): 1.28 ± 0.74
Binding potential (BPND), Thalamus (TSPO; [2]): 1.17 ± 0.78
Binding potential (BPND), Whole brain (TSPO; [2]): 2.25 ± 1.17
Increase of BPND in the medulla, HSE rats vs. control rats (TSPO; medulla): 93%

From publication PMC4424274, “Evaluation of [^11C]CB184 for imaging and quantification of TSPO overexpression in a rat model of herpes encephalitis” (European Journal of Nuclear Medicine and Molecular Imaging, 2015)
